The target of the test is GTPase KRas (Homo sapiens, UniProt P01116). Nature of the test: Antiproliferative activity against human COLO 320DM cells harboring wild type KRAS assessed as reduction in cell viability incubated for 24 hrs in presence of MVA.

What is called IC50 is the concentration at which inhibition is half-maximal.

GTPase KRas, sequence (P01116 whole entry): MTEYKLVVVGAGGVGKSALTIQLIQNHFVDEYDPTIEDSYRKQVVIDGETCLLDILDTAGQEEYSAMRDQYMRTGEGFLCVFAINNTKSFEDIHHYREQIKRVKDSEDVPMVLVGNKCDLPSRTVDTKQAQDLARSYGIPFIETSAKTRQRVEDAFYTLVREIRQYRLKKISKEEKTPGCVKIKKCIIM

Turning to `CCCC[C@@H](C)C=C(C)C=C(C)C(=O)NC1=C[C@@](O)(C=CC=CC=CC(=O)NC2C(=O)CCC2=O)[C@@H]2O[C@@H]2C1=O` [(R)-2,4,6-Trimethyl-deca-2,4-dienoic acid {(1S,5S,6R)-5-hydroxy-5-[(1E,3E,5E)-6-(2-hydroxy-5-oxo-cyclopent-1-enylcarbamoyl)-hexa-1,3,5-trienyl]-2-oxo-7-oxa-bicyclo[4.1.0]hept-3-en-3-yl}-amide], the IC50 worked out at 3.58 µM.

Values taken from BindingDB's records for PubMed 33228976 (Massachusetts College of Pharmacy and Health Sciences …, 2021).
